{"source": "patent US8906826B2", "about": "“Herbicidal compositions comprising 4-amino-3-chloro-5-fluoro-6-(4-chloro-2-fluoro-3-methoxyphenyl) pyridine-2-carboxylic acid or a derivative thereof and imidazolinones” (Dow AgroSciences, LLC, priority 2012, dated 2014)", "key": {"ECHCG": {"tested_on": "ECHCG", "test": "In-water applied, transplanted paddy rice weeds (Example II)", "format": "in vivo, Echinochloa crusgalli (L.) Beauv.", "experimental": "Weed seeds or nutlets of the desired test plant species were planted in puddled soil (mud) prepared by mixing a shredded, non-sterilized mineral soil (50.5 percent silt, 25.5 percent clay, and 24 percent sand, with a pH of about 7.6 and an organic matter content of about 2.9 percent) and water at a 1:1 volumetric ratio. The prepared mud was dispensed in 365 mL aliquots into 16-ounce (oz.) non-perforated plastic pots with a surface area of 86.59 square centimeters (cm^2) leaving a headspace of 3 centimeters (cm) in each pot. Mud was allowed to dry overnight prior to planting or transplanting. Rice seeds were planted in Sun Gro MetroMix® 306 planting mixture, which typically has a pH of about 6.0 to about 6.8 and an organic matter content of about 30 percent, in plastic plug trays. Seedlings at the second or third leaf stage of growth were transplanted into 860 mL of mud contained in 32-oz. non-perforated plastic pots with a surface area of 86.59 cm^2 4 days prior to herbicide application. The paddy was created by filling the headspace of the pots with 2.5 to 3 cm of water. When required to ensure good germination and healthy plants, a fungicide treatment and/or other chemical or physical treatment was applied. The plants were grown for 4-22 days in a greenhouse with an approximate 14 h photoperiod which was maintained at about 29° C. during the day and about 26° C. during the night. Nutrients were added as Osmocote® (19:6:12, N:P:K+minor nutrients) at 2 g per 16-oz. pot and 4 g per 32-oz. pot. Water was added on a regular basis to maintain the paddy flood, and supplemental lighting was provided with overhead metal halide 1000-Watt lamps as necessary. The plants were employed for testing when they reached the first through fourth true leaf stage.\nTreatments consisted of the acid or esters of 4-amino-3-chloro-5-fluoro-6-(4-chloro-2-fluoro-3-methoxy-phenyl)pyridine-2-carboxylic acid (compound A) each formulated as an SC and various herbicidal components alone and in combination. Forms of compound A were applied on an acid equivalent basis.\nOther herbicidal components were applied on an acid equivalent basis and included the acetolactate synthase (ALS)-inhibiting imidazolinone herbicides imazethapyr ammonium salt formulated as Newpath®, imazamox ammonium salt formulated as Beyond®, imazapic ammonium salt formulated as Plateau®, imazapyr isopropylamine salt formulated as Arsenal®, imazamethabenz-methyl (technical material), and imazaquin isopropylamine salt formulated as Scepter®.\nTreatment requirements for each compound or herbicidal component were calculated based upon the rates being tested, the concentration of active ingredient or acid equivalent in the formulation, an application volume of 2 mL per component per pot, and an application area of 86.59 cm^2 per pot.\nFor formulated compounds, a measured amount was placed in an individual 100 or 200 mL glass vial and was dissolved in a volume of 1.25% (v/v) Agri-Dex® crop oil concentrate to obtain application solutions.\nFor technical grade compounds, a weighed amount was placed in an individual 100 to 200 mL glass vial and was dissolved in a volume of acetone to obtain concentrated stock solutions. […] The concentrated stock solutions obtained were diluted with an equivalent volume of an aqueous mixture containing 2.5% (v/v) crop oil concentrate so that the final application solutions contained 1.25% (v/v) crop oil concentrate.\nApplications were made by injecting with a pipetter appropriate amounts of the application solutions, individually and sequentially, into the aqueous layer of the paddy. Control plants were treated in the same manner with the solvent blank. Applications were made so that all treated plant material received the same concentrations of acetone and crop oil concentrate.\nThe treated plants and control plants were placed in a greenhouse as described above and water was added as needed to maintain a paddy flood. […]"}, "CENMA": {"tested_on": "CENMA", "test": "Postemergence herbicidal activity in forage crops (Example IV)", "format": "in vivo, Centaurea biebersteinii DC.", "details": "after approximately 21 days", "experimental": "Seeds or root cuttings of the desired test plant species were planted in Sun Gro MetroMix® 306 planting mixture, which typically has a pH of about 6.0 to about 6.8 and an organic matter content of about 30 percent, in plastic pots with a surface area of 126.6 square centimeters (cm^2). When required to ensure good germination and healthy plants, a fungicide treatment and/or other chemical or physical treatment was applied. The plants were grown for 14-60 days in a greenhouse with an approximate 14 hour photoperiod which was maintained at about 28° C. during the day and about 24° C. during the night. Nutrients and water were added on a regular basis and supplemental lighting was provided with overhead metal halide 1000-Watt lamps as necessary. The plants were employed for testing when they reached the BBCH13 to BBCH23 leaf stage.\nTreatments consisted of the benzyl ester of 4-amino-3-chloro-5-fluoro-6-(4-chloro-2-fluoro-3-methoxy-phenyl)pyridine-2-carboxylic acid (Compound A), formulated as a SC (suspension concentrate), and a second herbicide alone and in combination.\nA measured aliquot of Compound A was placed in a 25 milliliter (mL) glass vial and diluted in a volume of 1.25% (v/v) Agri-Dex® crop oil concentrate to obtain stock solutions. Compound requirements are based upon a 12 mL application volume at a rate of 187 liters per hectare (L/ha). Spray solutions of the second cereal herbicide and experimental compound mixtures were prepared by adding the stock solutions to the appropriate amount of dilution solution to form 12 mL spray solution with active ingredients in two- and three-way combinations. Formulated compounds were applied to the plant material with an overhead Mandel track sprayer equipped with an 8002E nozzle calibrated to deliver 187 L/ha over an application area of 0.503 square meters (m^2) at a spray height of 18 inches (46 cm) above average plant canopy. Control plants were sprayed in the same manner with the solvent blank.\nThe treated plants and control plants were placed in a greenhouse as described above and watered by sub-irrigation to prevent wash-off of the test compounds. After approximately 21 days, the condition of the test plants, as compared with that of the control plants, was determined visually and scored on a scale of 0 to 100 percent where 0 corresponds to no injury and 100 corresponds to complete kill.\nColby's equation was used to determine the herbicidal effects expected from the mixtures (Colby, S. R. 1967. Calculation of the synergistic and antagonistic response of herbicide combinations. Weeds 15:20-22.).\nThe following equation was used to calculate the expected activity of mixtures containing two active ingredients, A and B: Expected=A+B−(A×B/100)"}, "[1]": {"details": "Compound A Benzyl Ester 17.5 gae/ha"}}}
{"compound": "COCc1cnc(C2=NC(C)(C(C)C)C(=O)N2)c(C(=O)O)c1.N", "note": "(racemic) [Imazamox ammonium, ammonium (±)-2-[4,5-dihydro-4-methyl-4-(1-methylethyl)-5-oxo-1H-imidazol-2-yl]-5-(methoxymethyl)-3-pyridinecarboxylate]", "values": [{"measurement": "Visual Weed Control (%) - 25 DAA ECHCG Obs", "setting": "ECHCG; Imazamox ammonium 5.6 gae/ha", "value": 0, "unit": "%"}, {"measurement": "Visual Weed Control (%) - 25 DAA ECHCG Obs", "setting": "ECHCG; Imazamox ammonium 22.4 gae/ha", "value": 25, "unit": "%"}]}
{"compound": "Cc1cnc(C2=NC(C)(C(C)C)C(=O)N2)c(C(=O)O)c1.N", "note": "(racemic) [Imazapic ammonium, ammonium (±)-2-[4,5-dihydro-4-methyl-4-(1-methylethyl)-5-oxo-1H-imidazol-2-yl]-5-methyl-3-pyridinecarboxylic acid]", "values": [{"measurement": "Visual Weed Control (%) - 25 DAA ECHCG Obs", "setting": "ECHCG; Imazapic ammonium 8.75 gae/ha", "value": 20, "unit": "%"}, {"measurement": "Visual Weed Control (%) - 25 DAA ECHCG Obs", "setting": "ECHCG; Imazapic ammonium 17.5 gae/ha", "value": 20, "unit": "%"}, {"measurement": "CENMA Obs", "setting": "CENMA; Imazapic ammonium 8.75 gae/ha", "value": 0, "unit": "%"}, {"measurement": "CENMA Obs", "setting": "CENMA; Imazapic ammonium 17.5 gae/ha", "value": 0, "unit": "%"}]}
{"compound": "CCc1cnc(C2=NC(C)(C(C)C)C(=O)N2)c(C(=O)O)c1.N", "note": "(racemic) [Imazethapyr ammonium, ammonium (±)-2-[4,5-dihydro-4-methyl-4-(1-methylethyl)-5-oxo-1H-imidazol-2-yl]-5-ethyl-3-pyridinecarboxylate]", "values": [{"measurement": "Visual Weed Control (%) - 25 DAA ECHCG Obs", "setting": "ECHCG; Imazethapyr ammonium 8.75 gae/ha", "value": 0, "unit": "%"}, {"measurement": "Visual Weed Control (%) - 25 DAA ECHCG Obs", "setting": "ECHCG; Imazethapyr ammonium 17.5 gae/ha", "value": 0, "unit": "%"}, {"measurement": "Visual Weed Control (%) - 25 DAA ECHCG Obs", "setting": "ECHCG; Imazethapyr ammonium 35 gae/ha", "value": 50, "unit": "%"}]}
{"compound": "COc1c(Cl)ccc(-c2nc(C(=O)O)c(Cl)c(N)c2F)c1F", "note": "[Compound A Acid, 4-amino-3-chloro-6-(4-chloro-2-fluoro-3-methoxyphenyl)-5-fluoropyridine-2-carboxylic acid]", "values": [{"measurement": "Visual Weed Control (%) - 25 DAA ECHCG Obs", "setting": "ECHCG; Compound A Acid 8.75 gae/ha", "value": 0, "unit": "%"}, {"measurement": "Visual Weed Control (%) - 25 DAA ECHCG Obs", "setting": "ECHCG; Compound A Acid 17.5 gae/ha", "value": 0, "unit": "%"}, {"measurement": "Visual Weed Control (%) - 25 DAA ECHCG Obs", "setting": "ECHCG; Compound A Acid 35 gae/ha", "value": 0, "unit": "%"}]}
{"compound": "COc1c(Cl)ccc(-c2nc(C(=O)OCc3ccccc3)c(Cl)c(N)c2F)c1F", "note": "[Compound A Benzyl Ester, benzyl ester of 4-amino-3-chloro-5-fluoro-6-(4-chloro-2-fluoro-3-methoxy-phenyl)pyridine-2-carboxylic acid]", "values": [{"measurement": "Visual Weed Control (%) - 25 DAA ECHCG Obs", "setting": "ECHCG; [1]", "value": 10, "unit": "%"}, {"measurement": "Visual Weed Control (%) - 25 DAA ECHCG Obs", "setting": "ECHCG; Compound A Benzyl Ester 35 gae/ha", "value": 45, "unit": "%"}, {"measurement": "CENMA Obs", "setting": "CENMA; Compound A Benzyl Ester 4.4 gae/ha", "value": 70, "unit": "%"}, {"measurement": "CENMA Obs", "setting": "CENMA; Compound A Benzyl Ester 8.8 gae/ha", "value": 85, "unit": "%"}, {"measurement": "CENMA Obs", "setting": "CENMA; [1]", "value": 95, "unit": "%"}]}
